# Laboratory results taken from US20110040086A1, “Novel Beta-Lactam Antibiotics, Methods for Their Production, and Their Use” (DRITTE PATENTPORTFOLIO BETEILIGUNGSGESELLSCHAFT MB, priority 2007, published 2011).
# Legend:
# [1] = test system: S. aureus ATCC 6538; assay: agar diffusion test (Test System II, multi-resistant germs); assay type: cell-based, Staphylococcus aureus
# How it was run: (§1)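 Discs loaded with 10, 50 or 100 μg compound (dissolved in methanol or distilled water) placed on Müller-Hinton agar II inoculated with McFarland 0.5 suspension. Incubated 18-20 h at 37 °C. Inhibition zone diameter read as activity.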
# [2] = test system: S. aureus 38418; assay: as above; assay type: cell-based, Staphylococcus aureus
# How it was run: as §1
# [3] = test system: S. epidermidis 125; assay: as above; assay type: cell-based, Staphylococcus epidermidis
# How it was run: as §1
# [4] = test system: Staphylococcus aureus ATCC 6538; assay: mouse infected with Staphylococcus aureus infection model (survival); assay type: in vivo, BALB/c mice; conditions: 2 × 0.5 mg (25 mg/kg) i.p.
# Experimental: Method for Effectiveness In Vivo with the Mouse Infected with Staphylococcus aureus Model
# On Day 0, at least 3 BALB/c mice per test substance (Table 8) or controls are pretreated with cyclophosphamide (250 mg/kg) in 250 μl PBS inta peritoneal (i.p.).
# On Day 2, the animals again received 100 mg/kg i.p.
# On Day 2, a colony of the test germ is transferred from a growing agar plate (Müller-Hinton-Agar, Beckton Dickinson) into a flask with 10 ml CASO broth (CASO-B., Soyabean peptone-Casein peptone broth, SIFIN, 30 g/l) and is cultivated overnight at 37° C. and a shaking frequency of 250 rpm.
# On Day 3, the pre-culture (Vk) is diluted 1:50 with CASO-B and further cultivated ca. 2 hours until an extinction in the medium of 0.6 at a wavelength of 550 nm is reached. Then, it is grown 1× with PBS at room temperature and set again to an extinction of 0.6.
# At least 3 animals for a test substance or controls are infected with 10 μl/g body weight grown germs of a bacteria suspension with the extinction 0.6 (ca. 10^10-10^12 CFU, Colony forming units) i.p.
# After 30 minutes, antibiotic solution is injected into the mice in a volume of 200 μl PBS with 3% DMSO i.p. 6 hours later, the second antibiotic injection is performed at the same concentration. […]
# [5] = test system: S. aureus North Germany strain; assay: agar diffusion test (Test System II, multi-resistant germs); assay type: cell-based, Staphylococcus aureus; set-up: key: r = resistant (no detectable zone of inhibition)
# How it was run: as §1
# [6] = test system: S. aureus 36881; assay: as above; assay type: cell-based, Staphylococcus aureus; set-up: key: r = resistant (no detectable zone of inhibition)
# How it was run: as §1
# [7] = test system: S. aureus 520; assay: as above; assay type: cell-based, Staphylococcus aureus; set-up: key: r = resistant (no detectable zone of inhibition)
# How it was run: as §1
# [8] = test system: S. epidermidis 847; assay: as above; assay type: cell-based, Staphylococcus epidermidis; set-up: key: r = resistant (no detectable zone of inhibition)
# How it was run: as §1
# [9] = logP value by HPLC according to Donovan et al.; conditions: HPLC, methanol/0.1% phosphoric acid pH 2
# Experimental: • Operating temperature 18-24° C. • Flow 1.5 mL/min • Linear gradient (methanol/0.1% phosphoric acid pH 2) from 10% to 100% methanol in 9.4 min, equilibrium time between 2 runs 6 min
# ca. 0.5 mg of analyte is added to 0.5 ml of a standard solution (440 mg methyl phenyl sulfonate and 380 μl toluene in 150 mL methanol). 2 μl of this sample solution is injected.
# Because the distribution coefficients of the two standards running in each test are known, the distribution coefficient of the analytes can be determined from the relationships of the analyte/standard retention times.
# [10] = test system: Enterococcus faecalis 769; assay: agar diffusion test (Test System II, multi-resistant germs); assay type: cell-based; set-up: key: r = resistant (no detectable zone of inhibition)
# How it was run: as §1
# [11] = test system: Staphylococcus aureus 315; assay: as above; assay type: cell-based; set-up: key: r = resistant (no detectable zone of inhibition)
# How it was run: as §1
compound,measurement,setting,value
"O=C(O)C1=C(Cl)CC2C(=O)C(NC(=O)C(NC3=C(C(=O)NCCO)C(=O)C=CC3=O)c3ccccc3)C2N1 (centres unmarked) [1m, 3-chlorine-7-{2-[2-(2-hydroxyethylcarbamoyl)-3,6-dioxocyclohexa-1,4-dienylamino]-2-phenyl-acetylamino}-8-oxo-5-azabicyclo[4.2.0]oct-3-ene-4-carboxylic acid]",Diameter of zone of inhibition,[1]; Quantity n 0.018,22 mm
same,Diameter of zone of inhibition,[1]; Quantity n 0.092,>30 mm
same,Diameter of zone of inhibition,[1]; Quantity n 0.18,>30 mm
same,Diameter of zone of inhibition,[2]; Quantity n [mol] 0.018,20 mm
same,Diameter of zone of inhibition,[2]; Quantity n [mol] 0.092,30 mm
same,Diameter of zone of inhibition,[2]; Quantity n [mol] 0.18,>30 mm
same,Diameter of zone of inhibition,[3]; Quantity n 0.018,20 mm
same,Diameter of zone of inhibition,[3]; Quantity n 0.092,26 mm
same,Diameter of zone of inhibition,[3]; Quantity n 0.18,28 mm
same,Survival/tested mice n/n,[4],9/9
same,Diameter of zone of inhibition,[5]; Quantity n 0.018,r
same,Diameter of zone of inhibition,[5]; Quantity n 0.092,r
same,Diameter of zone of inhibition,[5]; Quantity n 0.18,12 mm
same,Diameter of zone of inhibition,[6]; Quantity n 0.018,r
same,Diameter of zone of inhibition,[6]; Quantity n 0.092,16 mm
same,Diameter of zone of inhibition,[6]; Quantity n 0.18,20 mm
same,Diameter of zone of inhibition,[7]; Quantity n [mol] 0.018,r
same,Diameter of zone of inhibition,[7]; Quantity n [mol] 0.092,r
same,Diameter of zone of inhibition,[7]; Quantity n [mol] 0.18,8 mm
same,Diameter of zone of inhibition,[8]; Quantity n [mol] 0.018,r
same,Diameter of zone of inhibition,[8]; Quantity n [mol] 0.092,14 mm
same,Diameter of zone of inhibition,[8]; Quantity n [mol] 0.18,18 mm
same,logP value,[9],1.62
same,Diameter of zone of inhibition,[10]; Quantity n 0.018,r
same,Diameter of zone of inhibition,[10]; Quantity n 0.092,r
same,Diameter of zone of inhibition,[10]; Quantity n 0.18,r
same,Diameter of zone of inhibition,[11]; Quantity n 0.018,r
same,Diameter of zone of inhibition,[11]; Quantity n 0.092,r
same,Diameter of zone of inhibition,[11]; Quantity n 0.18,8 mm
